Results: patent publication US4342772A, “β-Lactam compounds, antibacterial compositions thereof and method of use” (priority 1979, dated 1982)
Values joined by “and” are separate entries in the source; they are usually repeats but may differ in a detail not shown here. Equal values may be shown once. Where a name gives a salt, the structure may show the parent alone. Read-outs that look alike come from different tables or passages of the source.

Assays:
β-lactamases = details: cited from earlier work
[1] = tested on: gram-positive and gram-negative organisms; details: cited from earlier work
[2] = tested on: β-lactamase producing bacteria; details: cited from earlier work
[3] = human, in vivo, po
Description: Serum concentrations and urinary excretion of ampicillin in fasting
following oral administration of
A. 125 mg of pivampicillin free base in tablets.
B. 170 mg of VD-1827^x hydrochloride (corresponding to 125 mg of
free base) in aqueous solution.
Serum concentrations (μg/ml) (% of dose)

[4] = Absorption from the gastro-intestinal tract and in vivo hydrolysis; set-up: species or system animals and human volunteers; details: oral, in words
[5] = Stability of crystalline form; type: physicochemical; details: crystalline free base; in words
[6] = cited from earlier work
[7] = in words, medium not stated; cited from earlier work
[8] = Urinary excretion in 0 to 6 hours of penicillanic acid 1,1-dioxide in fasting volunteers following oral administration (Table II); details: oral 73 mg potassium penicillanate 1,1-dioxide, aqueous solution, individual subjects in order GK, MK, FJ, MM, LA, 360 min

SMILES	Inhibition of a wide range of β-lactamases (β-lactamases)	Antibacterial activity against most gram-positive and gram-negative organisms [1]	Synergy against β-lactamase producing bacteria [2]	other results
CC1(C)[C@H](C(=O)O)N2C(=O)[C@H](Cl)[C@H]2S1(=O)=O [6α-chloropenicillanic acid 1,1-dioxide]	powerful inhibitors	only weak antibacterial activity	act synergistically	
CC1(C)S[C@@H]2[C@H](NC(=O)[C@H](N)c3ccccc3)C(=O)N2[C@H]1C(=O)OCOC(=O)[C@@H]1N2C(=O)C[C@H]2S(=O)(=O)C1(C)C [VD-1827 hydrochloride, 1,1-Dioxopenicillanoyloxymethyl 6-(D-α-amino-α-phenylacetamido)penicillanate hydrochloride]				Urinary recovery of ampicillin compared with pivampicillin [3]: comparable to that following administration of pivampicillin; Absorption from the gastro-intestinal tract ([4]; HCl, hydrochloride): efficient oral absorption
CC1(C)S[C@@H]2[C@H](NC(=O)[C@H](N)c3ccccc3)C(=O)N2[C@H]1C(=O)OCOC(=O)[C@@H]1N2C(=O)C[C@H]2S(=O)(=O)C1(C)C [VD-1827, free base, 1,1-Dioxopenicillanoyloxymethyl 6-(D-α-amino-α-phenylacetamido)penicillanate]				Absorption from the gastro-intestinal tract ([4]; listed as free base VD 1827): readily absorbable; Stability [5]: stable
CC1(C)S[C@@H]2C(NC(=O)[C@H](N)c3ccccc3)C(=O)N2[C@H]1C(=O)O (stereo partly drawn) [ampicillin, 6-(D-α-amino-α-phenylacetamido)penicillanic acid]				Absorption from the gastro-intestinal tract (general statement) ([6]; oral, in words, no data shown): incompletely absorbed
CC1(C)S[C@@H]2[C@H](NC(=O)C(C(=O)O)c3ccccc3)C(=O)N2[C@H]1C(=O)O (some centres unmarked) [carbenicillin]				Absorption from the gastro-intestinal tract (general statement) ([6]; in vivo, po): incompletely absorbed
COc1cccc(OC)c1C(=O)N[C@@H]1C(=O)N2[C@@H](C(=O)O)C(C)(C)S(=O)(=O)[C@H]12 [methicillin sulphone, 1,1-dioxo-6β-(2,6-dimethoxybenzamido)penicillanic acid]	powerful inhibitors	only weak antibacterial activity	act synergistically	
CC1(C)[C@H](C(=O)O)N2C(=O)C[C@H]2S1(=O)=O [penicillanic acid 1,1-dioxide]	powerful inhibitors	only weak antibacterial activity	act synergistically	Absorption from the gastro-intestinal tract [4]: absorbed poorly or irregularly
CC(C)(C)C(=O)OCOC(=O)[C@@H]1N2C(=O)C[C@H]2S(=O)(=O)C1(C)C [pivaloyloxymethyl ester of the β-lactamase inhibitor penicillanic acid 1,1-dioxide]				Solubility (general statement) [7]: sparingly soluble; Absorption from the gastro-intestinal tract (general statement) ([6]; oral, in words, no data shown): absorbed much more slowly
CC(C)(C)C(=O)OCOC(=O)[C@@H]1N2C(=O)[C@@H](NC(=O)[C@H](N)c3ccccc3)[C@H]2SC1(C)C [pivampicillin]				Absorption from the gastro-intestinal tract (general statement) ([6]; oral, in words, no data shown): absorbed very rapidly
CC1(C)[C@H](C(=O)[O-])N2C(=O)C[C@H]2S1(=O)=O.[K+] [potassium penicillanate 1,1-dioxide]				Urinary excretion of penicillanic acid 1,1-dioxide [8]: 2.5 % of dose and 4.0 % of dose and 9.5 % of dose and 5.5 % of dose and 4.5 % of dose
CC1(C)[C@H](C(=O)O)N2C(=O)[C@@H](NC(=O)c3nc4ccccc4nc3C(=O)O)[C@H]2S1(=O)=O [quinacillin sulphone]	powerful inhibitors	only weak antibacterial activity	act synergistically	
